# Results published in ChEMBL document CHEMBL1144866, “Surface descriptors for protein-ligand affinity prediction” (J Med Chem, 2003).
# Assay: Inhibitory activity against glycogen phosphorylase, activity expressed as -logKi
row,-Log Ki,SMILES
1,4.092,O=C(N[C@H]1O[C@H](CO)[C@@H](O)[C@H](O)[C@H]1O)c1ccccc1
2,4.409,CCC(=O)N[C@H]1O[C@H](CO)[C@@H](O)[C@H](O)[C@H]1O
3,2.824,OCC1OC(CO)C(O)C(O)C1O (configuration not stated)
4,4.357,O=C(CBr)N[C@H]1O[C@@H](CO)[C@@H](O)[C@H](O)[C@@H]1O
5,3.357,NC(=O)C1OC(CO)C(O)C(O)C1O (configuration not stated)
6,4.027,CCCC(=O)N[C@H]1O[C@H](CO)[C@@H](O)[C@H](O)[C@H]1O
7,3.796,CNC(=O)C1OC(CO)C(O)C(O)C1O (configuration not stated)
8,1.775,NCC1OC(CO)C(O)C(O)C1O (stereo in doubt; form 2)
9,4.796,COC(=O)N[C@]1(C(N)=O)O[C@H](CO)[C@@H](O)[C@H](O)[C@H]1O
10,3.004,CC(=O)NCC(=O)N[C@H]1O[C@H](CO)[C@@H](O)[C@H](O)[C@H]1O
11,4.347,O=C(CCl)N[C@H]1O[C@H](CO)[C@@H](O)[C@H](O)[C@H]1O
12,1.462,NCC1OC(CO)C(O)C(O)C1O (stereo in doubt; form 1)
13,3.432,NCC(=O)N[C@H]1O[C@@H](CO)[C@@H](O)[C@H](O)[C@@H]1O
14,3.854,NC(=O)N[C@H]1O[C@H](CO)[C@@H](O)[C@H](O)[C@H]1O
15,2.319,CS(=O)(=O)OCC1OC(CO)C(O)C(O)C1O (configuration not stated)
16,4.495,CC(=O)N[C@H]1O[C@H](CO)[C@@H](O)[C@H](O)[C@H]1O
17,3.836,NN1C(=O)N[C@@]2(O[C@@H](CO)[C@@H](O)[C@H](O)[C@@H]2O)C1=O
